The text below walks through data of patent publication US20080286201A1, “Caspase-3 Substrate Comprising Imaging Agents” (priority 2005, published 2008).

The target in one assay is T1, caspase-3 (Homo sapiens, UniProt P42574).
T1 construct: purchased BIOMOL
T1 sequence (P42574 29-175 limits assumed): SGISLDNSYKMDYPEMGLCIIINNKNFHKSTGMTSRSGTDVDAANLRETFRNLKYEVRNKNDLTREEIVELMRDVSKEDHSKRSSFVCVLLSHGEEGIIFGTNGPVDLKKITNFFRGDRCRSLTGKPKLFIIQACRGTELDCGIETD
T1 sequence (P42574 176-277 limits assumed): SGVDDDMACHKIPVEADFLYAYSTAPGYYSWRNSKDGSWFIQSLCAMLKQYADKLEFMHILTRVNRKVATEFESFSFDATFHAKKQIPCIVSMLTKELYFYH
The assay can be described thus: Caspase-3 assay kit (BIOMOL QuantiZyme Assay System), potency (Ki) of caspase-3 test substrates. Type of assay: biochemical. The procedure: Potency (Ki) of the caspase-3 test substrates was evaluated using a commercially available caspase-3 assay kit (BIOMOL QuantiZyme™ Assay System, CASPASE-3 Assay Kit for Drug Discovery). The DEVD substrate sequence was bio-modified with the additional of both tyrosine residues for radiolabelling and leader sequence to aid cell penetration. In vitro potency was maintained following both of these bio-modifications.

Assay [1] deals with phosphatidylserine (PS) on the outer membrane of apoptotic cells. Conditions: read-out: affinity of binding to phosphatidylserine; cited from earlier work.

What is called pKi is −log10 of the Ki, conventionally taken in molar units.

pKd, pKi: −log10 of the molar value. Square brackets hold non-standard residues; d marks the D form. Peptide text beside a SMILES is read from it. Tyr(3-I) = N[C@@H](Cc1ccc(O)c(I)c1)C(=O)O; Orn = NCCC[C@H](N)C(=O)O

Take `CC(=O)N[C@@H](CCCNC(=N)N)C(=O)N[C@@H](CCCCN)C(=O)N[C@@H](CCCCN)C(=O)N[C@@H](CCCNC(=N)N)C(=O)N[C@@H](CCCNC(=N)N)C(=O)N[C@@H](CCCN)C(=O)N[C@@H](CCCNC(=N)N)C(=O)N[C@@H](CCCNC(=N)N)C(=O)N[C@@H](CCCNC(=N)N)C(=O)NCC(=O)N[C@@H](CC(=O)O)C(=O)N[C@@H](CCC(=O)O)C(=O)N[C@H](C(=O)N[C@@H](CC(=O)O)C(=O)NCC(=O)N[C@@H](CCCCN)C(=O)N[C@@H](CCCCN)C(=O)N[C@@H](Cc1ccc(O)c(I)c1)C(N)=O)C(C)C` [Compound 22] (Ac-RKKRR[Orn]RRRGDEVDGKK[Tyr(3-I)]-NH2): the negative-log Ki (pKi) on caspase-3 is 5.03.
On to `CC(=O)N[C@@H](CC(=O)O)C(=O)N[C@@H](CCC(=O)O)C(=O)N[C@H](C(=O)N[C@@H](CC(=O)O)C(=O)Nc1ccc2c(C)cc(=O)oc2c1)C(C)C` [Ac-Asp-Glu-Val-Asp-AMC, reference compound], for which, on caspase-3, the pKi was 5.11.
Regarding “Annexin-5: endogenous human protein (RMM 36 kDa) which binds to phosphatidylserine on apoptotic cells”, the pKd in assay [1] was about 9.00.
As to `CC(=O)N[C@@H](CC(=O)O)C(=O)N[C@@H](CCC(=O)O)C(=O)N[C@H](C(=O)N[C@@H](CC(=O)O)C(=O)NCC(=O)N[C@@H](Cc1ccc(O)c(I)c1)C(N)=O)C(C)C` [Compound 2] (Ac-DEVDG[Tyr(3-I)]-NH2), at caspase-3, the pKi was 5.11.
